Patent US7091198B1, “2,5-disubstituted pyrimidine derivatives” (Bayer HealthCare AG, priority 2002, dated 2006)

Test system: cGMP in primary cortical neurons
Assay: Increase of cGMP in primary cortical neurons
Type: cell-based
Details: Primary cortical neuron, 20 min; rat embryonic primary cortical neurons; 20 min incubation at 37° C. with IBMX; triplicate determination; more than 2-fold increase compared with the control; read-out: concentration leading to a statistically significant increase in cGMP
Experimental: Increase of cGMP in Primary Cortical Neurons
Rat embryos (embryonic day 17–19) are decapitated, and the cerebrum is removed and incubated with 5 ml of papain solution and 250 μl of DNAse (papain kit from Cell-System) at 37° C. for 30 min, homogenized using a Pasteur pipette and centrifuged at 1200 rpm for 5 min. The supernatant is removed, the cell pellet resuspended (in 2.7 ml of EBSS [Earl's balanced salt solution], 300 μl of ovomucoid/albumin (conc.) solution, 150 μl of DNAse; papain kit from Cell-System), layered over 5 ml of ovomucoid/albumin solution and centrifuged at 700 rpm for 6 min. The supernatant is removed, the cells are resuspended in cultivation medium (Gibco neurobasal medium, B27 Supplement 50×1 ml/100 ml, 2 mM L-glutamine), counted (approx. 150 000 cells/well) and plated out on poly-D-lysine-coated 96-well plates (Costar) with 200 μl/well. After 6–7 days at 37° C. (5% CO2), the neurons are freed of culture medium and washed once with assay buffer (154 mM NaCl, 5.6 mM KCl, 2.3 mM CaCl2.2H2O, 1 mM MgCl2, 5.6 mM glucose, 8.6 mM HEPES (4-(2-hydroxyethyl)piperazine-1-ethanesulfonic acid), pH=7.4). 100 μl/well test substance are dissolved in assay buffer and then 100 μl/well IBMX (3-isobutyl-1-methylxanthine; dissolved in 50 mM ethanol, diluted with assay buffer to a final concentration of 100 μM) are added. After incubation at 37° C. for 20 min, the assay buffer is replaced by 200 μl/well of lysis buffer (cGMP EIA RPN 226 from Amersham Pharmacia Biotech), and the cGMP content of the lystates is determined using an EIA assay kit.
The concentrations indicated in Table 1 lead to a statistically significant increase in cGMP (triplicate determination; more than 2-fold increase compared with the control)

Question: COc1ccccc1-c1cnc(-c2nn(Cc3ccccc3F)c3ncccc23)nc1 [Example 27] was tested. Which minimal effective concentration did it give?
Answer: 0.9 µM

Question: How did the minimal effective concentration turn out when CO[C@H]1CCN(c2cnc(-c3nn(Cc4ccccc4F)c4ncccc34)nc2)C1 [Example 20, 1-(2-Fluorobenzyl)-3-{5-[(3S)-3-methoxy-1-pyrrolidinyl]-2-pyrimidinyl}-1 H-pyrazolo[3,4-b]pyridine] was run?
Answer: 0.27 µM

Question: CO[C@H]1CN(c2cnc(-c3nn(Cc4ccccc4F)c4ncccc34)nc2)C[C@@H]1OC [Example 6] was tested. Which minimal effective concentration did it give?
Answer: 0.27 µM

Question: For O=C1CCCCC1c1cnc(-c2nn(Cc3ccccc3F)c3ncccc23)nc1 (centres unmarked) [Example 13, 2-{2-[1-(2-Fluorobenzyl)-1H-pyrazol[3,4-b]pyridin-3-yl]-5-pyrimidinyl}-cyclohexanone], which minimal effective concentration is on record?
Answer: 0.27 µM

Question: With Fc1ccccc1Cn1nc(-c2ncc(N3CC4CNCC(C3)O4)cn2)c2cccnc21 [Example 10] as the compound, how does the minimal effective concentration read?
Answer: 1.2 µM

Question: Fc1ccccc1Cn1nc(-c2ncc(N3CC4CCC(C3)O4)cn2)c2cccnc21 [Example 19, 1-(2-Fluorobenzyl)-3-[5-(8-oxa-3-azabicyclo[3.2.1]oct-3-yl)-2-pyrimidinyl]-1H-pyrazolo[3,4-b]pyridine] was tested. Which minimal effective concentration did it give?
Answer: 0.27 µM

Question: Which minimal effective concentration does the source give for Fc1ccccc1Cn1nc(-c2ncc(-c3cn[nH]c3C3CC3)cn2)c2cccnc21 [Example 36, 3-[5-(5-Cyclopropyl-1H-pyrazol-4-yl)-2-pyrimidinyl]-1-(2-fluorobenzyl)-1 H-pyrazolo[3,4-b]pyridine] here?
Answer: 0.27 µM

Question: For O=C1CCN(c2cnc(-c3nn(Cc4ccccc4F)c4ncccc34)nc2)C1 [Example 38, 1-{2-[1-(2-Fluorobenzyl)-1H-pyrazol[3,4-b]pyridin-3-yl]-5-pyrimidinyl}-3-pyrrolidinone], which minimal effective concentration is on record?
Answer: 0.27 µM
